Assays:
c-Kit(V654A) = biological target: T1, c-Kit(V654A) (Homo sapiens, UniProt P10721, V654A); experiment: c-Kit(V654A) assay (33P-ATP filter binding kinase assay); assay type: biochemical; conditions: recombinant human c-Kit aa 544-end V654A, ATP 200 μM
T1 construct: recombinant human c-Kit, amino acids 544-end containing the V654A mutation; GST (N)
Procedure, shortened: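 Radiometric filter-binding read-out: substrate 33P incorporation counted by scintillation after P30 filtermat washes in 75 mM phosphoric acid and methanol. Enzyme: N-GST recombinant human c-Kit aa 544-end carrying V654A.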

[1] = biological target: T2, GIST430/654 cell line expressing mutated constitutively active cKIT receptor tyrosine kinase (Δ560-576 deletion and V654A point mutation) (Homo sapiens, UniProt P10721, DEL560-576/V654A); experiment: Cellular cKIT autophosphorylation (phospho-Y307-cKIT, Luminex bead assay) in GIST430/654 cells; assay type: cell-based; conditions: compounds 45 min, read-out: GIST 430/654 IC50
T2 construct: endogenous in cells; host or cells: GIST430/654 cells
T2 sequence (P10721 with tags, fused parts or gaps DEL560-576/V654A): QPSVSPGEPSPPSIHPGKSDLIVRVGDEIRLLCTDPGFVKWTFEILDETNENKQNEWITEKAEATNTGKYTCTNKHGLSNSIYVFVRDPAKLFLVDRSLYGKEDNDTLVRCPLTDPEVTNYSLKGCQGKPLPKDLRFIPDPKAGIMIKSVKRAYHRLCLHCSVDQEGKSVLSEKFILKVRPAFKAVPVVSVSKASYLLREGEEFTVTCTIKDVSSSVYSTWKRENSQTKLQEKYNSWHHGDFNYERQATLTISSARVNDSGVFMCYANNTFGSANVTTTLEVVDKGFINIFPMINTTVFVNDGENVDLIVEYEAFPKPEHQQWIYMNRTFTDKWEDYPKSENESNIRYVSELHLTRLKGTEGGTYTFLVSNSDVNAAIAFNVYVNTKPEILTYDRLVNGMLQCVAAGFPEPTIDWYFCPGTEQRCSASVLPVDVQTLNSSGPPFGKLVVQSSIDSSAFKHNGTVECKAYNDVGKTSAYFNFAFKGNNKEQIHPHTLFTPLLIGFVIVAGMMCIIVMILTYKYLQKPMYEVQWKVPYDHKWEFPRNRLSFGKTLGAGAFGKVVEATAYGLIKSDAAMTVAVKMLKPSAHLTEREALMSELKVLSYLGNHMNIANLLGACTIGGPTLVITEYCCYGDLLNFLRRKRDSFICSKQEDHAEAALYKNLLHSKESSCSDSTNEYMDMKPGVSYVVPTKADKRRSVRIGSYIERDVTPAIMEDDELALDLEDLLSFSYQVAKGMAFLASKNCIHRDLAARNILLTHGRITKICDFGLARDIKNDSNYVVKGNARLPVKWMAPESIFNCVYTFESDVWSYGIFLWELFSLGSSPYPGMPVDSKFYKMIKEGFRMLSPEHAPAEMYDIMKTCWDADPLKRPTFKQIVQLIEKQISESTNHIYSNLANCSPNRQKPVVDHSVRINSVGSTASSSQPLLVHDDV
Procedure, shortened: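 Phospho-Y307 cKIT in lysates was measured on a Luminex bead assay, with total-cKIT capture overnight at 4 °C and phosphospecific plus PE secondary detection. Cells had 45 min exposure to a compound dilution series the day after plating: GIST430 (Δ560-576) or GIST430/654 (Δ560-576/V654A, grown with 100 nM imatinib). IC50 values are relative to 0.3% DMSO-treated cells.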

T1 sequence (P10721 544-976 V654A): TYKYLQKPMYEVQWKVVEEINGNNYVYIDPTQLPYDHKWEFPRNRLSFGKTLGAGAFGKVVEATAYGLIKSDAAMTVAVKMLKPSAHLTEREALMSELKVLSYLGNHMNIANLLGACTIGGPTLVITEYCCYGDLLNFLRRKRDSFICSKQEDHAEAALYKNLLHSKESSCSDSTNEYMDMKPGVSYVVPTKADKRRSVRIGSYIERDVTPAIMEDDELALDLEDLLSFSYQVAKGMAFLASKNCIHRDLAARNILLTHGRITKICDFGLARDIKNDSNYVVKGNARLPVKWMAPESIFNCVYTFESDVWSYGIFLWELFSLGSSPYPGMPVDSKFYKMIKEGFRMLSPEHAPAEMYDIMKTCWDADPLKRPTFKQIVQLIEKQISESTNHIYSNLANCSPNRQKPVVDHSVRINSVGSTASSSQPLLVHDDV

IC50 (c-Kit(V654A)) [µM]	IC50 [1] [µM]	SMILES
0.022	0.18	COc1ccn2c(-c3cc(NCc4ccc(-c5cnn(C)c5CO)cc4)ncn3)cnc2c1 [A161, [4-(4-{[6-(7-methoxy-imidazo[1,2-a]pyridin-3-yl)-pyrimidin-4-ylamino]-methyl}-phenyl)-2-methyl-2H-pyrazol-3-yl]-methanol]
0.0074	0.18	Cn1cc(-c2ccc(CNc3cc(-c4cnc5cc(N)ccn45)ncn3)cc2)cn1 [A162, 6-{7-aminoimidazo[1,2-a]pyridin-3-yl}-N-{[4-(1-methyl-1H-pyrazol-4-yl)phenyl]methyl}pyrimidin-4-amine]
0.085	1.9	Cn1cc(-c2ccc(CNc3cc(-c4cnc5cc(NC(C)(C)CO)ccn45)ncn3)cc2)cn1 [A163, 2-methyl-2-(3-{6-[4-(1-methyl-1H-pyrazol-4-yl)-benzylamino]-pyrimidin-4-yl}-imidazo[1,2-a]pyridin-7-ylamino)-propan-1-ol]
0.009	0.26	Cn1cc(-c2ccc(CNc3cc(-c4cnc5cc(OC6CCNCC6)ccn45)ncn3)cc2)cn1 [A164, N-{[4-(1-methyl-1H-pyrazol-4-yl)phenyl]methyl}-6-[7-(piperidin-4-yloxy)imidazo[1,2-a]pyridin-3-yl]pyrimidin-4-amine]
0.032	0.3	Cn1cc(-c2ccc(CNc3cc(-c4cnc5cc(CCN6CCC(F)(F)C6)ccn45)ncn3)cc2)cn1 [A169, (6-{7-[2-(3,3-difluoro-pyrrolidin-1-yl)-ethyl]-imidazo[1,2-a]pyridin-3-yl}-pyrimidin-4-yl)-[4-(1-methyl-1H-pyrazol-4-yl)-benzyl]-amine]
0.0078	0.077	Cn1cc(-c2ccc(CNc3cc(-c4cnc5cc(N6CCOCC6)ccn45)ncn3)cc2)cn1 [A180, [4-(1-methyl-1H-pyrazol-4-yl)-benzyl]-[6-(7-morpholin-4-yl-imidazo[1,2-a]pyridin-3-yl)-pyrimidin-4-yl]-amine]
0.015	0.11	CN1CCN(c2ccn3c(-c4cc(NCc5ccc(-c6cnn(C)c6)cc5)ncn4)cnc3c2)CC1 [A181, {6-[7-(4-methyl-piperazin-1-yl)-imidazo[1,2-a]pyridin-3-yl]-pyrimidin-4-yl}-[4-(1-methyl-1H-pyrazol-4-yl)-benzyl]-amine]
0.011	0.092	Cn1cc(-c2ccc(CNc3cc(-c4cnc5cc(OC6CCN(C7COC7)CC6)ccn45)ncn3)cc2)cn1 [A182, N-{[4-(1-methyl-1H-pyrazol-4-yl)phenyl]methyl}-6-(7-{[1-(oxetan-3-yl)piperidin-4-yl]oxy}imidazo[1,2-a]pyridin-3-yl)pyrimidin-4-amine]
0.0075	0.38	Cn1cc(-c2ccc(CNc3cc(-c4cnc5cc(OCC6CCN(C7CC7)CC6)ccn45)ncn3)cc2)cn1 [A187, {6-[7-(1-cyclopropyl-piperidin-4-ylmethoxy)-imidazo[1,2-a]pyridin-3-yl]-pyrimidin-4-yl}-[4-(1-methyl-1H-pyrazol-4-yl)-benzyl]-amine]
0.0095	0.19	Cn1cc(-c2ccc(CNc3cc(-c4cnc5cc(OCC6CCN(CC#N)CC6)ccn45)ncn3)cc2)cn1 [A188, [4-(3-{6-[4-(1methyl-1H-pyrazol-4-yl)-benzylamino]-pyrimidin-4-yl}-imidazo[1,2-a]pyridin-7-yloxymethyl)-piperidin-1-yl]-acetonitrile]
0.0038	0.17	COCCN1CCC(COc2ccn3c(-c4cc(NCc5ccc(-c6cnn(C)c6)cc5)ncn4)cnc3c2)CC1 [A190]
0.0022	0.039	COCCN1CCC(COc2ccn3c(-c4cc(NCc5ccc(-c6cnn(C)n6)cc5)ncn4)cnc3c2)CC1 [A191, (6-{7-[1-(2-methoxy-ethyl)-piperidin-4-ylmethoxy]-imidazo[1,2-a]pyridin-3-yl}-pyrimidin-4-yl)-[4-(2-methyl-2H-[1,2,3]triazol-4-yl)-benzyl]-amine]
0.019	0.026	Cn1ncc(-c2ccc(CNc3cc(-c4cnc5cc(OCC6CCN(CC(F)F)CC6)ccn45)ncn3)cc2)n1 [A193, (6-{7-[1-(2,2-difluoro-ethyl)-piperidin-4-ylmethoxy]-imidazo[1,2-a]pyridin-3-yl}-pyrimidin-4-yl)-[4-(2-methyl-2H-[1,2,3]triazol-4-yl)-benzyl]-amine]
0.0095	0.078	Cn1cc(-c2ccc(CNc3cc(-c4cnc5cc(OCCN6C[C@@H](F)[C@@H](F)C6)ccn45)ncn3)cc2)cn1 [A209, (6-{7-[2-((3S,4R)-3,4-difluoro-pyrrolidin-1-yl)-ethoxy]-imidazo[1,2-a]pyridin-3-yl}-pyrimidin-4-yl)-[4-(1-methyl-1H-pyrazol-4-yl)-benzyl]-amine]
0.0065	0.1	Cn1cc(-c2ccc(CNc3cc(-c4cnc5cc(OCCN6CCC[C@@H]7OCC[C@@H]76)ccn45)ncn3)cc2)cn1 [A210, (6-{7-[(3aS,7aS)-2-(hexahydro-furo[3,2-b]pyridin-4-yl)-ethoxy]-imidazo[1,2-a]pyridin-3-yl}-pyrimidin-4-yl)-[4-(1-methyl-1H-pyrazol-4-yl)-benzyl]-amine]
0.0033	0.048	CC(COc1ccn2c(-c3cc(NCc4ccc(-c5cnn(C)n5)cc4)ncn3)cnc2c1)CN1CCCC1 (stereo not drawn) [A227, {6-[7-(2-methyl-3-pyrrolidin-1-yl-propoxy)-imidazo[1,2-a]pyridin-3-yl]-pyrimidin-4-yl}-[4-(2-methyl-2H-[1,2,3]triazol-4-yl)-benzyl]-amine]
0.011	0.044	Cn1cc(-c2ccc(CNc3cc(-c4cnc5cc(OCCC[N+]6([O-])CCCC6)ccn45)ncn3)cc2)cn1 [A228, 1-[3-({3-[6-({[4-(1-methyl-1H-pyrazol-4-yl)phenyl]methyl}amino)pyrimidin-4-yl]imidazo[1,2-a]pyridin-7-yl}oxy)propyl]pyrrolidin-1-ium-1-olate]
0.087	0.66	COc1ccn2c(-c3cc(NCc4ccc(-c5cn(CC(C)(C)O)nc5N)cc4)ncn3)cnc2c1 [A229, 1-[3-amino-4-(4-{[6-(7-methoxy-imidazo[1,2-a]pyridin-3-yl)-pyrimidin-4-ylamino]-methyl}-phenyl)-pyrazol-1-yl]-2-methyl-propan-2-ol]
0.023	0.17	Cn1ncc(-c2ccc(CNc3cc(-c4cnc5cc(N6CCCC6)ccn45)ncn3)cc2)n1 [A232, [4-(2-methyl-2H-[1,2,3]triazol-4-yl)-benzyl]-[6-(7-pyrrolidin-1-yl-imidazo[1,2-a]pyridin-3-yl)-pyrimidin-4-yl]-amine]
0.0043	0.087	CC(COc1ccn2c(-c3cc(NCc4ccc(-c5cnn(C)c5)cc4)ncn3)cnc2c1)CN1CCCC1 (stereo not drawn) [A235, [4-(1-methyl-1H-pyrazol-4-yl)-benzyl]-{6-[7-(2-methyl-3-pyrrolidin-1-yl-propoxy)-imidazo[1,2-a]pyridin-3-yl]-pyrimidin-4-yl}-amine]

SMILES	IC50 (c-Kit(V654A)) [µM]	IC50 [1] [µM]
Cn1cc(-c2ccc(CNc3cc(-c4cnc5cc(OCCCCN6CCC6)ccn45)ncn3)cc2)cn1 [A225, {6-[7-(4-azetidin-1-yl-butoxy)-imidazo[1,2-a]pyridin-3-yl]-pyrimidin-4-yl}-[4-(1-methyl-1H-pyrazol-4-yl)-benzyl]-am amine]	0.015	0.057
